“And” between values parts separate entries of the source, which are not always exact repeats. Equal entries are not always repeated.
Columns and labels:
Type in all cases: in vivo, Sprague Dawley rat
[1] = tested on: rats with middle cerebral artery occlusion (MCAO); test: Forelimb placing test, MCAO rats, double crossover study (Example 2)
Protocol: (§1) 4-AP was evaluated for its ability to promote functional sensorimotor improvement following ischemic stroke in rats with stable motor deficits at times remote from their ischemic events. The animal model mimics the conditions in human ischemic stroke and is produced by middle cerebral artery occlusion (MCAO), which results in extensive infarction in cerebral cortex and striatum, including the cortical spinal tract (white matter).
(§2) In particular, the MCAO model in Sprague Dawley rats that was utilized in the experiments presented below mimics the conditions in human ischemic stroke. In this model, focal cerebral infarcts were made by permanent occlusion of the proximal right middle cerebral artery (MCA) using a modification of the method of Tamura et al. (No To Shinkei 1986; 38:747-51). Briefly, the temporalis muscle was bisected and reflected through an incision made midway between the eye and the ear canal. The proximal MCA was exposed through a subtemporal craniectomy without removing the zygomatic arch and without transecting the facial nerve.
(§3) Dosing and Treatment: Rats were treated in accordance with the dosing schedule shown in Tables 2A, 2B, 3 and FIG. 2, with each Phase being a two week period of time. A solution of 4-AP was used in this experiment. Dosing was started at 4 weeks after ischemic event. 4-aminopyridine was dissolved in water for injection (WFI, Cellgro) and sterile filtered. Final concentrations of 0.315 mg/mL or 1.0 mg/mL of 4-aminopyridine were delivered at 2 mL/kg by gastric gavage, resulting in final doses of 0.63 mg/kg and 2 mg/kg respectively. Vehicle control treatment was WFI delivered at 2 mL/kg by gastric gavage. This study was divided into three treatment phases (1-3) with each randomized cohort of animals receiving a different dose level during each of the treatment phases. Starting on day 30 after MCAO (Day 30, start of phase 1), the animals received gavage dosing of solutions (2 mL/kg) approximately 12 hours apart, for a total of five doses. The same schedule was repeated with different treatment on Day 44 and Day 58 for phase 2 and 3 of the study, respectively. Animals were not treated during the 10 days between phases (washout period).
Treatment groups: Dosing was started 4 weeks after MCAO surgery. During these 4 weeks, weekly behavioral assessments, as defined below, were performed. Two dose levels of 4-AP plus vehicle control were assessed, with treatment starting at 4 weeks after ischemic event. […] Following the final behavioral assessment, drug was withdrawn for 10 or 11 days, behavior was re-assessed, and then animals were re-challenged with a cross-over treatment (Phase 2 of Table 2B) as described in Tables 2A, 2B and 3, followed by the same behavioral testing and dosing regimen. […]

[2] = tested on: rats with middle cerebral artery occlusion (MCAO); test: Hindlimb placing test, MCAO rats, double crossover study (Example 2); set-up: Hindlimb Placing Total Score, individual animals / Hindlimb Placing Total Score, Mean: scale not given here; conditions: for Hindlimb Placing Total Score, individual animals: one value per rat; for Hindlimb Placing Total Score, Mean: N 15
Protocol: as §1, §2, §3
Treatment groups: Dosing was started 4 weeks after MCAO surgery. During these 4 weeks, weekly behavioral assessments, as defined below, were performed. Two dose levels of 4-AP plus vehicle control were assessed, with treatment starting at 4 weeks after ischemic event. All dosing was via gastric gavage, volume not to exceed 2 mL/kg. Animals were given the first dose and behavioral assessments were performed starting 60 minutes after dosing. Animals then received the second dose that day at the appropriate time and b.i.d (preferably every 12 hours) thereafter for 2 more days (3 total days of dosing, 5 total doses). One hour after the 5th dose, animals were subjected to behavioral assessments as defined below. Following the final behavioral assessment, drug was withdrawn for 10 or 11 days, behavior was re-assessed, and then animals were re-challenged with a cross-over treatment (Phase 2 of Table 2B) as described in Tables 2A, 2B and 3, followed by the same behavioral testing and dosing regimen. This cross-over was repeated one more time as well (Phase 3 of Table 2B) (see FIG. 2).
Behavioral test details: Behavioral evaluations were done by evaluators blinded to treatment assignment. Blinded assessments of sensorimotor function were performed just prior to MCAO surgery, 24 hours after MCAO surgery and weekly thereafter until the first phase of dosing using limb placing and body swing behavioral tests. As described above, behavioral assessments were timed exactly with dosing times. Animals were tested one hour after the 1st and 5th doses of each phase (i.e., Days 30 and 32 of the first phase, Days 44 and 46 of the second phase; and Days 58 and 60 of the third phase); animals were also tested during the washout periods on Days 42 and 56. […]

[3] = tested on: rats with middle cerebral artery occlusion (MCAO); test: Infarct volume measurement (H&E), MCAO rats (Example 2); conditions: Day 63
Protocol: Euthanasia and post-mortem processing: Infarct Volume analysis. After the last behavioral assessment, rats were anesthetized deeply with ketamine/xylazine (100 mg/kg ketamine, 10 mg/kg xylazine, i.p.) and perfused transcardially with normal saline (with heparin 2 unit/ml) followed by 4% paraformaldehyde or formalin on Day 63. Brains were harvested and processed for histological assessment. A subset of 10 brains per group was processed for infarct volume measurement (H&E staining).
(§4) Infarct measurement: Brains were embedded in paraffin and 5 micron thick coronal sections were cut using a microtome. Sections were stained with hematoxylin and eosin (H&E), using standard methods. Seven coronal sections (+4.7, +2.7, +0.7, −1.3, −3.3, −5.3 and −7.3, compared to bregma respectively) from each brain were photographed by a digital camera, and the infarct area on each slice was determined by NIH Image (Image J) using the “indirect method” (area of the intact contralateral [left] hemisphere−area of intact regions of the ipsilateral [right] hemisphere) to correct for brain edema. Infarct areas were then summed among slices and multiplied by slice thickness (the distance between sections) to give total infarct volume, which was expressed as a percentage of intact contralateral hemispheric volume.

[4] = tested on: rats with middle cerebral artery occlusion (MCAO); test: Infarct volume measurement, MCAO rats (Example 17)
Protocol: as §4
Euthanasia and post-mortem processing: At day 70 after MCAO rats were anesthetized as described in Example 2, above.
Infarct measurement: Infarct measurement was performed as described in Example 2, above.
Statistical Methods: Changes from pre-treatment baseline values (Day 56) were calculated for each behavioral score at each time point assessed after dosing. Mean behavioral parameter data were subject to Analysis of Variance (ANOVA). Infarct volume data were analyzed by ANOVA. All data were expressed as means±SEM.

[5] = Group 3 (sequence vhl), D44 after MCAO, phase 2, high dose
[6] = Group 3 (sequence vhl), D46 after MCAO, phase 2, high dose
[7] = Group 3 (sequence vhl), D58 after MCAO, phase 3, low dose
[8] = Group 3 (sequence vhl), D60 after MCAO, phase 3, low dose

Nc1ccncc1 [4-aminopyridine]
Forelimb function, low dose compared to vehicle, first mixed model ([1]; 0.63 mg/kg b.i.d. p.o., level 0.05): didn't show statistical significant improvement
Forelimb function, low dose compared to vehicle, second mixed model ([1]; 0.63 mg/kg b.i.d. p.o., p<0.0001): significant difference
Forelimb function, high dose compared to low dose and vehicle ([1]; 2 mg/kg b.i.d. p.o., first mixed model, p=0.0334 vs low, p=0.001 vs vehicle): significantly improved the forelimb function
Effect on forelimb function (FIG. 3) ([1]; low or high dose, 4 weeks post ischemic brain injury, dose-responsive, reversible): effective to improve forelimb function
Hindlimb function, low dose compared to vehicle ([2]; 0.63 mg/kg b.i.d. p.o., first mixed model, p=0.0027): significantly improved the hindlimb function
Hindlimb function, high dose compared to vehicle ([2]; 2 mg/kg b.i.d. p.o., first mixed model, p<0.0001): significantly improved the hindlimb function
Hindlimb Placing Total Score, individual animals ([2]; Group 2 (sequence lvh), D30 after MCAO, phase 1, low dose): 2.50 and 1.50 (6×) and 2.00 (5×) and 1.00 and 0.50 and 3.00
Hindlimb Placing Total Score, individual animals ([2]; Group 2 (sequence lvh), D32 after MCAO, phase 1, low dose): 2.00 (2×) and 1.00 (4×) and 1.50 (8×) and 0.50
Hindlimb Placing Total Score, individual animals ([2]; Group 2 (sequence lvh), D58 after MCAO, phase 3, high dose): 2.00 (2×) and 0.00 (5×) and 1.00 and 1.50 (4×) and 0.50 (3×)
Hindlimb Placing Total Score, individual animals ([2]; Group 2 (sequence lvh), D60 after MCAO, phase 3, high dose): 0.50 (5×) and 0.00 (9×) and 1.00
Hindlimb Placing Total Score, Mean [2, 5]: 0.90
Hindlimb Placing Total Score, individual animals [2, 5]: 2.00 (2×) and 0.00 (3×) and 1.50 and 1.00 (2×) and 0.50 (2×)
Hindlimb Placing Total Score, Mean [2, 6]: 0.30
Hindlimb Placing Total Score, individual animals [2, 6]: 1.00 and 0.00 (6×) and 0.50 (3×)
Hindlimb Placing Total Score, Mean [2, 7]: 0.80
Hindlimb Placing Total Score, individual animals [2, 7]: 1.50 and 0.50 (3×) and 1.00 (3×) and 3.00 and 0.00 (2×)
Hindlimb Placing Total Score, Mean [2, 8]: 0.70
Hindlimb Placing Total Score, individual animals [2, 8]: 1.50 and 1.00 (3×) and 0.50 (2×) and 2.00 and 0.00 (3×)
Effect on hindlimb function (FIGS. 4A-D) ([2]; low or high dose, 4 weeks post ischemic brain injury, dose responsive, reversible): effective to improve hindlimb function
Mean infarct volume (% of contralateral hemisphere) ([3]; Group 1 (sequence high, low, vehicle)): 45.0 (±1.8) %
Mean infarct volume (% of contralateral hemisphere) ([3]; Group 2 (sequence low, vehicle, high)): 41.4 (±2.3) %
Mean infarct volume (% of contralateral hemisphere) ([3]; Group 3 (sequence vehicle, high, low)): 39.0 (±3.3) %
Mean (SE) Infarct Volume (%) ([4]; 4-AP dose escalation 0.5, 1 and 2 mg/kg p.o. b.i.d. Days 56-65 after MCAO): 40.0 (2.3) %
Infarct volume, 4-aminopyridine versus vehicle (water) ([4]; Day 70 after MCAO): no differences in infarct volume were observed

From patent US20160067232A1, “METHODS FOR TREATING A STROKE-RELATED SENSORIMOTOR IMPAIRMENT USING AMINOPYRIDINES” (Acorda Therapeutics, Inc., priority 2011, published 2016)
